The source of these data is patent publication US20260356819A1, “OXOISOINDOLINYL-SUBSTITUTED […] DERIVATIVE AND USE THEREOF” (GLUETACS THERAPEUTICS (SHANGHAI) CO., LTD., priority 2023, published 2026).

SMILES strings stand for the structures.

Holding throughout (format): cell-based
What all share (details): compounds at 50 nM and 500 nM

In one test the target is T1, IKZF3 (Homo sapiens, UniProt Q96SW2+Q9UKT9).
T1 construct: The supernatant was aspirated as the extracted total cell protein; endogenous in cells; host or cells: human peripheral blood mononuclear cells (hPBMCs)
T1 sequence (Q9UKT9 whole entry): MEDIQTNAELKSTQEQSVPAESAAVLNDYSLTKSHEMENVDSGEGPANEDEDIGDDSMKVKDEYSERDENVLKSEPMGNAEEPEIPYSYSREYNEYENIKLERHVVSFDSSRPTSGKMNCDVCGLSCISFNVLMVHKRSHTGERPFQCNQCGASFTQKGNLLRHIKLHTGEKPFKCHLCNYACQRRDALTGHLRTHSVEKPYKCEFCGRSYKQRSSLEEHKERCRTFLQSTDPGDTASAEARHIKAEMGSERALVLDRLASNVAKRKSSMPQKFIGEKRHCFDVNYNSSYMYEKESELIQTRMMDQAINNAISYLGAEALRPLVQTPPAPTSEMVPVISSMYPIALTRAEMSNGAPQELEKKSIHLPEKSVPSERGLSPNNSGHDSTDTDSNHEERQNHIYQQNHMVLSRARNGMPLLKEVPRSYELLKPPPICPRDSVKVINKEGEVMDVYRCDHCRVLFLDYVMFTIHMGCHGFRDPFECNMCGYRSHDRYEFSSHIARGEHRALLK
T1 sequence (Q96SW2 whole entry): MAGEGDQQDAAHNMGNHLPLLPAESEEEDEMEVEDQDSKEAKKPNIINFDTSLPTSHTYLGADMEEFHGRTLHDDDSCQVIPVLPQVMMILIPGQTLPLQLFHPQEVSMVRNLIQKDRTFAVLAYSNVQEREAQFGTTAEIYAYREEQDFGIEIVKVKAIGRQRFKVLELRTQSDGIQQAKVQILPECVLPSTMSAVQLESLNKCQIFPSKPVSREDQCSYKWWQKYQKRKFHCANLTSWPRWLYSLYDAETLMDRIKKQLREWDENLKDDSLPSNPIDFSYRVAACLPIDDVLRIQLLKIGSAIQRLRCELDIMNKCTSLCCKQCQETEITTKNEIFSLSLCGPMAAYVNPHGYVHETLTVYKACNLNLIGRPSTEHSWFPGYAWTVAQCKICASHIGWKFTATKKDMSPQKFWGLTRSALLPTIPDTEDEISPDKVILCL
T1 sequence (Q16531 whole entry partner): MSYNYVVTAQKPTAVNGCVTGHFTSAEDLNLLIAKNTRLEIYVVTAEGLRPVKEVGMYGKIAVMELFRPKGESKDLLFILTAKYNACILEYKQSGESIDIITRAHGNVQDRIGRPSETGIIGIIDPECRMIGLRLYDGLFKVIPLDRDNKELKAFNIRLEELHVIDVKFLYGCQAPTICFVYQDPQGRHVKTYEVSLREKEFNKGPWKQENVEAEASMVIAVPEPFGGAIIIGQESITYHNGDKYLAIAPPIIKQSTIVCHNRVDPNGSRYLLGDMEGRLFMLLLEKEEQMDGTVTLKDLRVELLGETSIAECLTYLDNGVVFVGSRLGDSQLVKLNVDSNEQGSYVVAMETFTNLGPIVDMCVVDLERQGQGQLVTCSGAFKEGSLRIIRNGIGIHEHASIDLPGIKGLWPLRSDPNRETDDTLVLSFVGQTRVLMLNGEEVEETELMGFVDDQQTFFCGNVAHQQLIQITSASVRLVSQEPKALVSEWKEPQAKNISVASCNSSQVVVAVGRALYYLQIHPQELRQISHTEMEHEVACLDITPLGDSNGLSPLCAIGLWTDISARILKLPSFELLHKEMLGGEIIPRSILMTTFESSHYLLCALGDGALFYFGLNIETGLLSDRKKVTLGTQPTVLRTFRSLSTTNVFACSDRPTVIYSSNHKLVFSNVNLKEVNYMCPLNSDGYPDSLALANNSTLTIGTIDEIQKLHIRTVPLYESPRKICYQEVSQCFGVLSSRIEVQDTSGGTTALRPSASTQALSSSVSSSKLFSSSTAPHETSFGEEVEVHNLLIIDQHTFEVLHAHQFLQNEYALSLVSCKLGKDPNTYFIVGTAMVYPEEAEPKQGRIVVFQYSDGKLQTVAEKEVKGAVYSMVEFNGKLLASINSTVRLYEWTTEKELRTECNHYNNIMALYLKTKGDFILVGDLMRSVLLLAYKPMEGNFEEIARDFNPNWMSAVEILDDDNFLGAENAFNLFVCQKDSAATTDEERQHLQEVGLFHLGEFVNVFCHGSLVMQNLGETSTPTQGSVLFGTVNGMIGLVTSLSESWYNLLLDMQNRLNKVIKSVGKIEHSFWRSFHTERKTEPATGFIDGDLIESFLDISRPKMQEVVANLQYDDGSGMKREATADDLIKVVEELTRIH
The test can be described thus: Western blot degradation of IKZF3 in hPBMCs (24 h). A digest of the protocol: (§1)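 Degradation in primary human PBMCs after 24 h compound exposure at 50 and 500 nM. Western blot band intensities, normalised to an internal control protein, expressed as % protein remaining relative to DMSO.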

For a further test, the target named is T2, GSPT1 (Homo sapiens, UniProt P15170+Q96SW2).
T2 construct: The supernatant was aspirated as the extracted total cell protein; endogenous in cells; host or cells: human peripheral blood mononuclear cells (hPBMCs)
T2 sequence (P15170 whole entry): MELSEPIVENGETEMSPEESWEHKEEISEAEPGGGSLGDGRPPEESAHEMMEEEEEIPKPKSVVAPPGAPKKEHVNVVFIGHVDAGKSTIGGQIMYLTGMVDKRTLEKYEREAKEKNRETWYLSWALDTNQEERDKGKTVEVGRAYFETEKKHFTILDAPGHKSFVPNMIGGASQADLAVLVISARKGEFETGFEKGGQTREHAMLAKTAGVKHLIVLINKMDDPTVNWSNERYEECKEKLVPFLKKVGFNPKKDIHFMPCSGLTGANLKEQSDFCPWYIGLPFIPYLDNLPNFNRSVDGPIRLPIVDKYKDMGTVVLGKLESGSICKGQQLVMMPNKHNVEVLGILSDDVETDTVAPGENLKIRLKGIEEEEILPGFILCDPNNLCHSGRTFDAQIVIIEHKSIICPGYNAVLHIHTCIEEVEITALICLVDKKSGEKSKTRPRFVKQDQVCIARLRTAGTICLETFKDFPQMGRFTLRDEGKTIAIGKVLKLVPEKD
T2 sequence (Q96SW2 whole entry): as the sequence (Q96SW2 whole entry) above
T2 sequence (Q16531 whole entry partner): as the sequence (Q16531 whole entry partner) above
Briefly: Western blot degradation of GSPT1 in hPBMCs (24 h). In a few lines: as §1
Background: Immunoblotting shows a protein as a band on a membrane.

For the next test, the target named is T3, CK1α (Homo sapiens, UniProt P48729+Q96SW2).
T3 construct: The supernatant was aspirated as the extracted total cell protein; endogenous in cells; host or cells: human peripheral blood mononuclear cells (hPBMCs)
T3 sequence (P48729 whole entry): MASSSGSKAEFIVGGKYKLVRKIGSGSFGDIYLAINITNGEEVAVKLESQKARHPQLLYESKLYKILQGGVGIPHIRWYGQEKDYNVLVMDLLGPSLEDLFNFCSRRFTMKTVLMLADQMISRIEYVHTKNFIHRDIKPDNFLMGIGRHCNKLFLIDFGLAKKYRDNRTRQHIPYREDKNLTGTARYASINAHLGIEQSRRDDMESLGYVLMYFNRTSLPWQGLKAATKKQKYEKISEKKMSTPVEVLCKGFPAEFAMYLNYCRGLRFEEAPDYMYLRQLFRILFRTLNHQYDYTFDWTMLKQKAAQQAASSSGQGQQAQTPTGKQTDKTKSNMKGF
T3 sequence (Q96SW2 whole entry): as the sequence (Q96SW2 whole entry) above
T3 sequence (Q16531 whole entry partner): as the sequence (Q16531 whole entry partner) above
The test can be described thus: Western blot degradation of CK1α in hPBMCs (24 h). A digest of the protocol: as §1

In a further test the target is T4, IKZF2 (Homo sapiens, UniProt Q96SW2+Q9UKS7).
T4 construct: The supernatant was aspirated as the extracted total cell protein; endogenous in cells; host or cells: human peripheral blood mononuclear cells (hPBMCs)
T4 sequence (Q9UKS7 whole entry): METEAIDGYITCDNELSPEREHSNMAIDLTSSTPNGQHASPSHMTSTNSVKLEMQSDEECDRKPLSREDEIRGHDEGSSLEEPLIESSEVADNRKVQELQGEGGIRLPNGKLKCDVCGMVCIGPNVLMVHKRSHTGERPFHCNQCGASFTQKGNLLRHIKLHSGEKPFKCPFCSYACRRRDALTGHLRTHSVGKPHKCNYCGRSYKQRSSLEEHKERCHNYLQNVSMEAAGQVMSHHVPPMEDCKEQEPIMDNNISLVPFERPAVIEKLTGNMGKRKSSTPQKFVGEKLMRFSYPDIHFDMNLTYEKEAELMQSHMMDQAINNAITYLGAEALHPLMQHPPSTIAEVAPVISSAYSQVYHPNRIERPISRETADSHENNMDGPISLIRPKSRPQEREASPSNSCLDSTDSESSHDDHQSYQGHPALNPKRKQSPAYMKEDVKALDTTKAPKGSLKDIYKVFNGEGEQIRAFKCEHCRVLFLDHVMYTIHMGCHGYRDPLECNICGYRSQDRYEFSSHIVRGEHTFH
T4 sequence (Q96SW2 whole entry): as the sequence (Q96SW2 whole entry) above
T4 sequence (Q16531 whole entry partner): as the sequence (Q16531 whole entry partner) above
The test can be described thus: Western blot degradation of IKZF2 in hPBMCs (24 h). In a few lines:
as §1

In the next test the target is T5, WEE1 (Homo sapiens, UniProt P30291+Q96SW2).
T5 construct: The supernatant was aspirated as the extracted total cell protein; endogenous in cells; host or cells: human peripheral blood mononuclear cells (hPBMCs)
Briefly: Western blot degradation of WEE1 in hPBMCs (24 h). In a few lines:
as §1

The target of a further test is T6, IKZF1 (Homo sapiens, UniProt Q13422+Q96SW2).
T6 construct: The supernatant was aspirated as the extracted total cell protein; endogenous in cells; host or cells: human peripheral blood mononuclear cells (hPBMCs)
T6 sequence (Q13422 whole entry): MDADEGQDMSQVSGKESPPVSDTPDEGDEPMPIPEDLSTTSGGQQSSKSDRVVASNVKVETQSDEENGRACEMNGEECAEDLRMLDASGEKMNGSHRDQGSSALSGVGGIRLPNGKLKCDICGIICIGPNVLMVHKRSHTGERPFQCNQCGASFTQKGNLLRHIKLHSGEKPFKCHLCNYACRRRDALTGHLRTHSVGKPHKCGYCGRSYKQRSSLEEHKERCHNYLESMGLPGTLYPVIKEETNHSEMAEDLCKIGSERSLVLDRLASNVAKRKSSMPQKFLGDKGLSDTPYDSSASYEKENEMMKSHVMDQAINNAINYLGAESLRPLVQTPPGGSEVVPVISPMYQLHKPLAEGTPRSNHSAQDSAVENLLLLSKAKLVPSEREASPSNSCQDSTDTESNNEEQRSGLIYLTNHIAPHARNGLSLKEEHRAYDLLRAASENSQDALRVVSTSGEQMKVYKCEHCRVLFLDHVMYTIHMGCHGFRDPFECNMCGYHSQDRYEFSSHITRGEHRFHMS
T6 sequence (Q96SW2 whole entry): as the sequence (Q96SW2 whole entry) above
T6 sequence (Q16531 whole entry partner): as the sequence (Q16531 whole entry partner) above
The test can be described thus: Western blot degradation of IKZF1 in hPBMCs (24 h). In a few lines: as §1

On to `O=C1CCN(N2Cc3cc(CN4CCN(c5nsc6cc(F)ccc56)CC4)ccc3C2=O)C(=O)N1` [GT-07500, 1-(5-((4-(6-fluorobenzo[d]isothiazol-3-yl)piperazin-1-yl)methyl)-1-oxoisoindolin-2-yl)dihydropyrimidine-2,4(1H,3H)-dione], for which the “IKZF3 substrate protein remaining %” value on IKZF3 is recorded as “B (80%< substrate protein remaining % ≤100%)”. Moreover, at GSPT1, the “GSPT1 substrate protein remaining %” value was “A (0% ≤ substrate protein remaining % ≤80%)”. Further, the “CK1α substrate protein remaining %” value on CK1α is on record as “A (0% ≤ substrate protein remaining % ≤80%)”. In addition, the “IKZF2 substrate protein remaining %” value at IKZF2 is reported as “B (80%< substrate protein remaining % ≤100%)”. The “WEE1 substrate protein remaining %” value at WEE1 is on record as “A (0% ≤ substrate protein remaining % ≤80%)”. In addition, the “IKZF1 substrate protein remaining %” value on IKZF1 is on record as “A (0% ≤ substrate protein remaining % ≤80%)”.
For the molecule `O=C1CCN(N2Cc3cc(CN4CCN(c5c[nH]c6ncccc56)CC4)ccc3C2=O)C(=O)N1` [GT-07502, 1-(5-((4-(1H-pyrrolo[2,3-b]pyridin-3-yl)piperazin-1-yl)methyl)-1-oxoisoindolin-2-yl)dihydropyrimidine-2,4(1H,3H)-dione], the “IKZF3 substrate protein remaining %” value at IKZF3 is recorded as “B (80%< substrate protein remaining % ≤100%)”. Moreover, at GSPT1, the “GSPT1 substrate protein remaining %” value was “A (0% ≤ substrate protein remaining % ≤80%)”. On CK1α, the “CK1α substrate protein remaining %” value is “A (0% ≤ substrate protein remaining % ≤80%)”. Further, the “IKZF2 substrate protein remaining %” value at IKZF2 is reported as “B (80%< substrate protein remaining % ≤100%)”. For the same molecule, the “WEE1 substrate protein remaining %” value at WEE1 is on record as “A (0% ≤ substrate protein remaining % ≤80%)”. Further, at IKZF1, the “IKZF1 substrate protein remaining %” value is reported as “A (0% ≤ substrate protein remaining % ≤80%)”.
For `O=C1CCN(N2Cc3cc(CN4CCC(n5cnc6cc(F)ccc65)CC4)ccc3C2=O)C(=O)N1` [GT-07503, 1-(5-((4-(5-fluoro-1H-benzo[d]imidazol-1-yl)piperidin-1-yl)methyl)-1-oxoisoindolin-2-yl)dihydropyrimidine-2,4(1H,3H)-dione], the “IKZF3 substrate protein remaining %” value at IKZF3 is listed as “B (80%< substrate protein remaining % ≤100%)”. For the same molecule, the “GSPT1 substrate protein remaining %” value on GSPT1 is “A (0% ≤ substrate protein remaining % ≤80%)”. Moreover, the “CK1α substrate protein remaining %” value at CK1α is “A (0% ≤ substrate protein remaining % ≤80%)”. For the same molecule, the “IKZF2 substrate protein remaining %” value at IKZF2 is listed as “B (80%< substrate protein remaining % ≤100%)”. Also, the “WEE1 substrate protein remaining %” value on WEE1 is “A (0% ≤ substrate protein remaining % ≤80%)”. In addition, the “IKZF1 substrate protein remaining %” value at IKZF1 is “A (0% ≤ substrate protein remaining % ≤80%)”.
As to `O=C1CCN(N2Cc3cc(CN4CCC(c5n[nH]c6cc(F)ccc56)CC4)ccc3C2=O)C(=O)N1` [GT-07508, 1-(5-((4-(6-fluoro-1H-indazol-3-yl)piperidin-1-yl)methyl)-1-oxoisoindolin-2-yl)dihydropyrimidine-2,4(1H,3H)-dione], the “IKZF3 substrate protein remaining %” value on IKZF3 was “B (80%< substrate protein remaining % ≤100%)”. The “GSPT1 substrate protein remaining %” value at GSPT1 is on record as “A (0% ≤ substrate protein remaining % ≤80%)”. Besides, at CK1α, the “CK1α substrate protein remaining %” value is given as “A (0% ≤ substrate protein remaining % ≤80%)”. Further, the “IKZF2 substrate protein remaining %” value on IKZF2 is “A (0% ≤ substrate protein remaining % ≤80%)”. For the same molecule, at WEE1, the “WEE1 substrate protein remaining %” value is listed as “A (0% ≤ substrate protein remaining % ≤80%)”. Moreover, the “IKZF1 substrate protein remaining %” value on IKZF1 is “A (0% ≤ substrate protein remaining % ≤80%)”.
Consider `O=C1CCN(N2C(=O)c3ccc(CN4CCC(c5noc6ccccc56)CC4)cc3C2=O)C(=O)N1` [GT-07522, 5-((4-(benzo[d]isoxazol-3-yl)piperidin-1-yl)methyl)-2-(2,4-dioxotetrahydropyrimidin-1(2H)-yl)isoindoline-1,3-dione], for which the “IKZF3 substrate protein remaining %” value on IKZF3 is on record as “B (80%< substrate protein remaining % ≤100%)”. Besides, on GSPT1, the “GSPT1 substrate protein remaining %” value is on record as “A (0% ≤ substrate protein remaining % ≤80%)”. Further, the “CK1α substrate protein remaining %” value on CK1α is “A (0% ≤ substrate protein remaining % ≤80%)”. In addition, at IKZF2, the “IKZF2 substrate protein remaining %” value is “A (0% ≤ substrate protein remaining % ≤80%)”. At WEE1, the “WEE1 substrate protein remaining %” value is “A (0% ≤ substrate protein remaining % ≤80%)”. Also, the “IKZF1 substrate protein remaining %” value at IKZF1 is recorded as “A (0% ≤ substrate protein remaining % ≤80%)”.
With `O=C1CCN(N2C(=O)c3ccc(CN4CCC(c5ccon5)CC4)cc3C2=O)C(=O)N1` [GT-07523, 2-(2,4-dioxotetrahydropyrimidin-1(2H)-yl)-5-((4-(isoxazol-3-yl)piperidin-1-yl)methyl)isoindoline-1,3-dione], the “IKZF3 substrate protein remaining %” value on IKZF3 is “B (80%< substrate protein remaining % ≤100%)”. The “GSPT1 substrate protein remaining %” value at GSPT1 is listed as “A (0% ≤ substrate protein remaining % ≤80%)”. At CK1α, the “CK1α substrate protein remaining %” value is listed as “A (0% ≤ substrate protein remaining % ≤80%)”. The “IKZF2 substrate protein remaining %” value on IKZF2 is recorded as “A (0% ≤ substrate protein remaining % ≤80%)”. In addition, the “WEE1 substrate protein remaining %” value on WEE1 is “A (0% ≤ substrate protein remaining % ≤80%)”. On IKZF1, the “IKZF1 substrate protein remaining %” value was “A (0% ≤ substrate protein remaining % ≤80%)”.
In the case of `O=C1CCN(N2C(=O)c3ccc(CN4CCN(c5noc6cc(F)ccc56)CC4)cc3C2=O)C(=O)N1` [GT-07524, 2-(2,4-dioxotetrahydropyrimidin-1(2H)-yl)-5-((4-(6-fluorobenzo[d]isoxazol-3-yl)piperazin-1-yl)methyl)isoindoline-1,3-dione], on IKZF3, the “IKZF3 substrate protein remaining %” value is reported as “B (80%< substrate protein remaining % ≤100%)”. For the same molecule, at GSPT1, the “GSPT1 substrate protein remaining %” value is reported as “A (0% ≤ substrate protein remaining % ≤80%)”. For the same molecule, the “CK1α substrate protein remaining %” value at CK1α is listed as “B (80%< substrate protein remaining % ≤100%)”. At IKZF2, the “IKZF2 substrate protein remaining %” value is given as “A (0% ≤ substrate protein remaining % ≤80%)”. Further, the “WEE1 substrate protein remaining %” value at WEE1 is recorded as “A (0% ≤ substrate protein remaining % ≤80%)”. Besides, the “IKZF1 substrate protein remaining %” value at IKZF1 is listed as “A (0% ≤ substrate protein remaining % ≤80%)”.
With `O=C1CCN(N2C(=O)c3ccc(CN4CCN(c5noc6ccncc56)CC4)cc3C2=O)C(=O)N1` [GT-07525, 2-(2,4-dioxotetrahydropyrimidin-1(2H)-yl)-5-((4-(isoxazolo[4,5-c]pyridin-3-yl)piperazin-1-yl)methyl)isoindoline-1,3-dione], the “IKZF3 substrate protein remaining %” value on IKZF3 was “B (80%< substrate protein remaining % ≤100%)”. On GSPT1, the “GSPT1 substrate protein remaining %” value is reported as “A (0% ≤ substrate protein remaining % ≤80%)”. Further, on CK1α, the “CK1α substrate protein remaining %” value is “A (0% ≤ substrate protein remaining % ≤80%)”. At IKZF2, the “IKZF2 substrate protein remaining %” value is “B (80%< substrate protein remaining % ≤100%)”. Moreover, the “WEE1 substrate protein remaining %” value on WEE1 was “B (80%< substrate protein remaining % ≤100%)”. In addition, the “IKZF1 substrate protein remaining %” value at IKZF1 is “B (80%< substrate protein remaining % ≤100%)”.
For the molecule `O=C1CCN(N2C(=O)c3ccc(CN4CCN(c5nsc6cc(F)ccc56)CC4)cc3C2=O)C(=O)N1` [GT-07526, 2-(2,4-dioxotetrahydropyrimidin-1(2H)-yl)-5-((4-(6-fluorobenzo[d]isothiazol-3-yl)piperazin-1-yl)methyl)isoindoline-1,3-dione], at IKZF3, the “IKZF3 substrate protein remaining %” value was “B (80%< substrate protein remaining % ≤100%)”. For the same molecule, on GSPT1, the “GSPT1 substrate protein remaining %” value is “A (0% ≤ substrate protein remaining % ≤80%)”. Further, the “CK1α substrate protein remaining %” value on CK1α is given as “A (0% ≤ substrate protein remaining % ≤80%)”. Further, the “IKZF2 substrate protein remaining %” value at IKZF2 is given as “B (80%< substrate protein remaining % ≤100%)”. The “WEE1 substrate protein remaining %” value at WEE1 is reported as “B (80%< substrate protein remaining % ≤100%)”. For the same molecule, the “IKZF1 substrate protein remaining %” value at IKZF1 is “B (80%< substrate protein remaining % ≤100%)”.
